Laboratory results reported in patent US20200055839A1 (priority 2017, published 2020).

system: NL-RLuc virus; assay: Inhibition of HIV replication (NL-RLuc virus, luciferase readout in MT-2 cells); format: cell-based; conditions: Human immunodeficiency virus 1, MT2, 120 h, MT-2 cells infected with NL-RLuc virus, 5 days of incubation, 10% FBS, at least 2 experiments
Method in brief: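 EC50 derived via median effect equation from at least 2 experiments, using luciferase expression as virus-growth readout. Replication-competent NL-RLuc reporter virus (nef partly replaced by Renilla luciferase) infected MT-2 cells with serial compound dilutions; 5-day incubation in RPMI 1640 plus 10% FBS.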

Compound | EC50
CCCCNc1ncc(-c2cnc(C)c([C@H](OC(C)(C)C)C(=O)O)c2N2CCC(C)(C)CC2)cc1F [Example 414, (S)-2-(tert-Butoxy)-2-(6′-(butylamino)-4-(4,4-dimethylpiperidin-1-yl)-5′-fluoro-6-methyl-[3,3′-bipyridin]-5-yl)acetic acid] | 3 nM
CCCCOc1ccc(-c2cnc(CC)c([C@H](OC(C)(C)C)C(=O)O)c2N2CCC(C)(C)CC2)nc1 [Example 279, (S)-2-(tert-Butoxy)-2-(5-butoxy-4′-(4,4-dimethylpiperidin-1-yl)-6′-ethyl-[2, 3′-bipyridin]-5′-yl)acetic acid] | 6 nM
Cc1ncc(-c2ccccc2-c2ccccc2)c(N2CCC(C)(C)CC2)c1[C@H](OC(C)(C)C)C(=O)O [Example 138, (2S)-2-(5-{[1,1′-Biphenyl]-2-yl}-4-(4,4-dimethylpiperidin-1-yl)-2-methylpyridin-3-yl)-2-(tert-butoxy)acetic acid] | 71 nM
CC1(C)CCN(c2c(-c3ccc(OCCc4ccc(F)cc4)cc3)cnc(C#N)c2[C@H](OC(C)(C)C)C(=O)O)CC1 [Example 222, (S)-2-(tert-Butoxy)-2-(2-cyano-4-(4,4-dimethylpiperidin-1-yl)-5-(4-(4-fluorophenethoxy)phenyl)pyridin-3-yl)acetic acid] | 8 nM
Cc1ncc(-c2cc(F)ccc2F)c(N2CCC(C)(C)CC2)c1[C@H](OC(C)(C)C)C(=O)O [Example 130, (2S)-2-(tert-Butoxy)-2-[5-(2,5-difluorophenyl)-4-(4,4-dimethylpiperidin-1-yl)-2-methylpyridin-3-yl]acetic acid] | 13 nM
COc1ccc(-c2cnc(C)c([C@H](OC(C)(C)C)C(=O)O)c2N2CCC(C)(C)CC2)nc1 [Example 229, (S)-2-(tert-Butoxy)-2-(4′-(4,4-dimethylpiperidin-1-yl)-5-methoxy-6′-methyl-[2, 3′-bipyridin]-5′-yl)acetic acid] | 13 nM
Cc1ccc(F)cc1CCOc1ccc(-c2cnc(C)c([C@H](OC(C)(C)C)C(=O)O)c2N2CCC(C)(C)CC2)nc1 [Example 295, (2S)-2-(tert-butoxy)-2-[4′-(4,4-dimethylpiperidin-1-yl)-5-[2-(5-fluoro-2-methylphenyl)ethoxy]-6′-methyl-[2,3′-bipyridine]-5′-yl]acetic acid] | 2 nM
CCCOc1ccc(CCOc2ccc(-c3cnc(C)c([C@H](OC(C)(C)C)C(=O)O)c3N3CCC(C)(C)CC3)nc2)cc1 [Example 325, (2S)-2-(tert-butoxy)-2-[4′-(4,4-dimethylpiperidin-1-yl)-6′-methyl-5-[2-(4-propoxyphenyl)ethoxy]-[2,3′-bipyridine]-5′-yl]acetic acid] | 3 nM
Cc1ncc(-c2ccc(OCCc3cccc(F)c3)c(F)c2)c(N2CCC(C)(C)CC2)c1[C@H](OC(C)(C)C)C(=O)O [Example 257, (S)-2-(tert-Butoxy)-2-(4-(4,4-dimethylpiperidin-1-yl)-5-(3-fluoro-4-(3-fluorophenethoxy)phenyl)-2-methylpyridin-3-yl)acetic acid] | 1 nM
CC1(C)CCN(c2c(-c3ccc(CNc4ncnc5c4oc4ccccc45)cc3)cnc(Cl)c2[C@H](OC(C)(C)C)C(=O)O)CC1 [Example 201, (S)-2-(5-(4-((Benzofuro[3,2-d]pyrimidin-4-ylamino)methyl)phenyl)-2-chloro-4-(4,4-dimethylpiperidin-1-yl)pyridin-3-yl)-2-(tert-butoxy)acetic acid] | 1 nM
Cc1ncc(-c2cccc3cccnc23)c(N2CCC(C)(C)CC2)c1[C@H](OC(C)(C)C)C(=O)O [Example 184, (2S)-2-(tert-Butoxy)-2-[4-(4,4-dimethylpiperidin-1-yl)-2-methyl-5-(quinolin-8-yl)pyridin-3-yl]acetic acid] | 8 nM
Cc1cc(-c2cnc(C)c([C@H](OC(C)(C)C)C(=O)O)c2N2CCC(C)(C)CC2)cnc1OCCc1ccc(F)cc1 [Example 253, (S)-2-(tert-Butoxy)-2-(4-(4,4-dimethylpiperidin-1-yl)-6′-(4-fluorophenethoxy)-5′,6-dimethyl-[3,3′-bipyridin]-5-yl)acetic acid] | 1 nM
Cc1ncc(-c2ccc3ccncc3c2)c(N2CCC(C)(C)CC2)c1[C@H](OC(C)(C)C)C(=O)O [Example 176, (2S)-2-(tert-Butoxy)-2-[4-(4,4-dimethylpiperidin-1-yl)-5-(isoquinolin-7-yl)-2-methylpyridin-3-yl]acetic acid] | 5 nM
Cc1nc(NCCN(C)C)c(-c2ccc(OCCc3ccc(F)cc3)cc2)c(N2CCC(C)(C)CC2)c1[C@H](OC(C)(C)C)C(=O)O [Example 28, (S)-2-(tert-Butoxy)-2-(6-((2-(dimethylamino)ethyl)amino)-4-(4,4-dimethylpiperidin-1-yl)-5-(4-(4-fluorophenethoxy)phenyl)-2-methylpyridin-3-yl)acetic acid] | 0.7 nM
Cc1nc(Nc2cnn(C)c2)c(-c2ccc(OCCc3ccc(F)cc3)cc2)c(N2CCC(C)(C)CC2)c1[C@H](OC(C)(C)C)C(=O)O [Example 87, (S)-2-(tert-Butoxy)-2-(4-(4,4-dimethylpiperidin-1-yl)-5-(4-(4-fluorophenethoxy)phenyl)-2-methyl-6-((1-methyl-H-pyrazol-4-yl)amino)pyridin-3-yl)acetic acid] | 2 nM
Cc1ncc(-c2ccc(CCC(C)C)cn2)c(N2CCC(C)(C)CC2)c1[C@H](OC(C)(C)C)C(=O)O [Example 273, (S)-2-(tert-Butoxy)-2-(4′-(4,4-dimethylpiperidin-1-yl)-5-isopentyl-6′-methyl-[2, 3′-bipyridin]-5′-yl)acetic acid] | 4 nM
Cc1nc(Nc2ccc(C#N)cn2)c(-c2ccc(OCCc3ccc(F)cc3)cc2)c(N2CCC(C)(C)CC2)c1[C@H](OC(C)(C)C)C(=O)O [Example 109, (S)-2-(tert-Butoxy)-2-(6-((5-cyanopyridin-2-yl)amino)-4-(4,4-dimethylpiperidin-1-yl)-5-(4-(4-fluorophenethoxy)phenyl)-2-methylpyridin-3-yl)acetic acid] | 13 nM
Cc1ncc(-c2cnc(OCC(C)(C)c3ccccc3)c(F)c2)c(N2CCC(C)(C)CC2)c1[C@H](OC(C)(C)C)C(=O)O [Example 402, (2S)-2-(tert-butoxy)-2-[4-(4,4-dimethylpiperidin-1-yl)-5′-fluoro-6-methyl-6′-(2-methyl-2-phenylpropoxy)-[3,3′-bipyridine]-5-yl]acetic acid] | 3 nM
Cc1nc(Nc2ccc(C(=O)O)cn2)c(-c2ccc(OCCc3ccc(F)cc3)cc2)c(N2CCC(C)(C)CC2)c1[C@H](OC(C)(C)C)C(=O)O [Example 101, (S)-6-((5-(tert-Butoxy(carboxy)methyl)-4-(4,4-dimethylpiperidin-1-yl)-3-(4-(4-fluorophenethoxy)phenyl)-6-methylpyridin-2-yl)amino)nicotinic acid] | 10 nM
CC1(C)CCN(c2c(-c3ccc(OCCc4ccc(F)cc4)cc3)cncc2[C@H](OC(C)(C)C)C(=O)O)CC1 [Example 200, (S)-2-(tert-Butoxy)-2-(4-(4,4-dimethylpiperidin-1-yl)-5-(4-(4-fluorophenethoxy)phenyl)pyridin-3-yl)acetic acid] | 2 nM
Cc1nc(OCCO)c(-c2ccc(OCCc3ccc(F)cc3)cc2)c(N2CCC(C)(C)CC2)c1[C@H](OC(C)(C)C)C(=O)O [Example 103, (S)-2-(tert-Butoxy)-2-(4-(4,4-dimethylpiperidin-1-yl)-5-(4-(4-fluorophenethoxy)phenyl)-6-(2-hydroxyethoxy)-2-methylpyridin-3-yl)acetic acid] | 2 nM
Cc1ncc(-c2cc(C(F)(F)F)c(OCCc3ccc(F)cc3)cn2)c(N2CCC(C)(C)CC2)c1[C@H](OC(C)(C)C)C(=O)O [Example 244, (S)-2-(tert-Butoxy)-2-(4′-(4,4-dimethylpiperidin-1-yl)-5-(4-fluorophenethoxy)-6′-methyl-4-(trifluoromethyl)-[2, 3′-bipyridin]-5′-yl)acetic acid] | 3 nM
Cc1nc(Nc2ccncc2F)c(-c2ccc(OCCc3ccc(F)cc3)cc2)c(N2CCC(C)(C)CC2)c1[C@H](OC(C)(C)C)C(=O)O [Example 93, (S)-2-(tert-Butoxy)-2-(4-(4,4-dimethylpiperidin-1-yl)-5-(4-(4-fluorophenethoxy)phenyl)-6-((3-fluoropyridin-4-yl)amino)-2-methylpyridin-3-yl)acetic acid] | 12 nM
Cc1nc(N(C)CCCN(C)C)c(-c2ccc(OCCc3ccc(F)cc3)cc2)c(N2CCC(C)(C)CC2)c1[C@H](OC(C)(C)C)C(=O)O [Example 98, (S)-2-(tert-Butoxy)-2-(6-((3-(dimethylamino)propyl)(methyl)amino)-4-(4,4-dimethylpiperidin-1-yl)-5-(4-(4-fluorophenethoxy)phenyl)-2-methylpyridin-3-yl)acetic acid] | 2 nM
Cc1nc(C(N)=O)c([C@H](OC(C)(C)C)C(=O)O)c(N2CCC(C)(C)CC2)c1-c1ccc(OCCc2ccc(F)cc2)cc1 [Example 6, (S)-2-(tert-Butoxy)-2-(2-carbamoyl-4-(4,4-dimethylpiperidin-1-yl)-5-(4-(4-fluorophenethoxy)phenyl)-6-methylpyridin-3-yl)acetic acid] | 14 nM
Cc1ncc(-c2cccc(F)c2C)c(N2CCC(C)(C)CC2)c1[C@H](OC(C)(C)C)C(=O)O [Example 160, (2S)-2-(tert-Butoxy)-2-[4-(4,4-dimethylpiperidin-1-yl)-5-(3-fluoro-2-methylphenyl)-2-methylpyridin-3-yl]acetic acid] | 13 nM
COc1ccc(CCOc2ccc(-c3cnc(C)c([C@H](OC(C)(C)C)C(=O)O)c3N3CCC(C)(C)CC3)cc2)cc1 [Example 367, (2S)-2-(tert-butoxy)-2-[4-(4,4-dimethylpiperidin-1-yl)-5-{4-[2-(4-methoxyphenyl)ethoxy]phenyl}-2-methylpyridin-3-yl]acetic acid] | 1 nM
CCCCN(C)c1ccc(-c2cnc(C)c([C@H](OC(C)(C)C)C(=O)O)c2N2CCC(C)(C)CC2)nc1 [Example 442, (S)-2-(tert-Butoxy)-2-(5-(butyl(methyl)amino)-4′-(4,4-dimethylpiperidin-1-yl)-6′-methyl-[2, 3′-bipyridin]-5′-yl)acetic acid] | 5 nM
